Measured values: patent US20250311722A1, “IMPROVED BIOCIDE” (Purgos ApS, priority 2022, published 2025)

Key:
[1] = test system: Pseudomonas aeruginosa, ATCC 10145; experiment: PT6 screening, in-can preservation of acrylic paint (ATP, aerobic and anaerobic growth on agar plate); format: cell-based
Protocol: The microbial activity in relation to in-can preservation of paint was tested using three methods: ATP measurement, Aerobic growth on agar plate and Anaerobic growth on agar plate in low-air conditions. […] Furthermore, no significant dependence on concentration was shown in these specific tests. Specific about the ATP measurements: test and method developed by Luminultra. A sample is taken from the test paint at a given time and the total amount of ATP is measured. Total ATP amount are measured at Day 7 and 30. After every ATP measurement, streaking of test material on agar plates has been performed. Growth test in aerobic and anaerobic environment are running in 1 and 14 days, respectively. Test organism: Pseudomonas aeruginosa, ATCC 10145 [table] The commercial biocide used for the results listed in Table VIII is Vinkocide CMIK R. Acrylic paint is standard EN152 (modified without PT6 biocide). P. aeruginosa are inoculated in 200 μl concentration to paint sample size of 140 ml in a sterile “paint can-shape” container. Shark Solution candidate A and the commercial biocide are added to the standard paint and mixed in a shaker machine. Every matrix is tested in two replications (n=2) with an additional replication without inoculation of bacteria.

Aspergillus niger ISI 3 = experiment: Minimum bactericidal concentration (MBC); format: cell-based
Description: Even when no growth is detectable in the MIC tests, it is possible that the microorganisms have survived the treatment i.e., they are not killed but just prevented from growing. In order to test for survivors, MBC plates were subsequently made from the MIC plates.

[2] = test system: selected typical species of contaminants; experiment: Substitution of conventional biocides with NBDA in products, LuminUltra test against controls; format: cell-based
Description: A test sample (T): In a known recipe for a product comprising one or more conventional biocide(s), said biocide(s) is replaced with NBDA (or another tert, amine according to the present invention).
A control sample (C): Product comprising one or more conventional biocide(s) produced following an established recipe.
A negative control sample (N): A further negative control may be provided by removing said conventional biocide(s) from the recipe, without addition of NBDA (or other biocides). Provision and test of the N-sample can be optional.
Samples, such as test-, control- and/or negative control samples are provided according to Example 3. To assess the effect of the biocide(s), microbial contamination is measured, such as according to Example 6, or other conventional methods known in the art.
In short, samples are exposed to microbial contamination (microbial stress test) e.g. by opening a lid and closing it for a defined period of time, or other operations, mimicking a conventional user situation. Alternatively, samples can be inoculated with defined quantities of microorganisms, such as one or more indicator microorganism.
The samples can be divided into different aliquots, and incubated for selected periods at one or more relevant temperatures, such as e.g. one or more of 4° C., room temperature (RT, usually 20° C., 22° C., or 25° C.), 30° C., 32° C., 37° C., 40° C., and/or 60° C.), simulating e.g. appropriate storage, processing and usage conditions.
ATP, such as intracellular ATP is measured using a commercially available system, such as provided by LumiUltra®, in particular a method using luminase (Aqua Tools, see details below).
In short, a buffering solution and Luminase enzyme are mixed. After daily ATP standard calibration, an aliquot, such as 1 ml of sample is transferred to an 1 ml extraction tube. After dilution in UltraLute resin, the total ATP (content can be established in the luminescence measuring device. 2) 1 ml sample is dissolved in LumiSolve stabilizing agent. […] For further details, see e.g. Aqua Tools (78300 Poissy, France) Quick reference guide QuenchGone21™ Speciality Test Kit QG21S-50/QG21St-100 2G.

[3] = 10% N-BDA in water; cited from earlier work
rat = experiment: LD50 (rat, oral); format: in vivo; settings: extrapolated from rat LD50 4250 mg/kg
Vaccinia = experiment: ASTM E1052 Kill Time Screen test, antiviral activity; format: cell-based
[4] = test system: Enterococcus hierae, ATCC 10541; experiment: EN 1276 quantitative suspension test, bactericidal activity; format: cell-based, Enterococcus hirae; settings: all tested contact times (5, 60 min) and concentrations (1.5%, 3%, 6%)
Protocol: The test was carried out according to EN 1276, 2019: Chemical disinfectants and antiseptics-Quantitative suspension test for the evaluation of bactericidal activity of chemical disinfectants and antiseptics used in food, industrial, domestic, and institutional areas-Test method and requirements. […] The growth media TSB (Tryptic Soy Broth) was separately inoculated with a culture loop of the microorganisms. The cultures were incubated at 37° C. for 24 hours. Bovine Serum Albumin with a final concentration of 3 g/L Polysorbate 80 with a concentration of 30 g/L The used method was Dilution-neutralization method. 1 mL of interfering substance was pipetted into a tube and 1 mL of the test suspension was added and mixed. […] The solution was incubated at 20° C. for 5 min. and 60 min. respectively. […] After 5 min. of neutralization time 100 μL of the mixture was added to a petri-dish containing TSA media. Another 100 μL was added to a tube containing 900 μL 0.9% NaCl and a serial dilution to 10^-5 was made. The mixtures added to the agar plates were evenly distributed with a Drigalski-spatula. The agar plates were incubated at 37° C. for 24 hours. After incubation, the number of surviving bacteria (CFU) was counted. The test was performed in 3 replicates.

SMILES: CCCCN(CCO)CCO [NBDA, N-butyldiethanolamine]
- anti-microbial potential in paint ([1]; 1, 2 and 5% NBDA): reveal anti-microbial potentials
- effectiveness in in-can preservation of paints ([1]; concentrations of 0.5%, 1%, 2%, and 5%): effective against aerobic bacteria
- MBC (%) (Aspergillus niger ISI 3): 0.63%
- biocidal protection ([2]; SBR precoat composition for carpets, MIT/BIT substituted with 0.5% NBDA): same performance as the origin
- biocidal effect ([2]; Styrene-Butadiene-Rubber (SBR)-emulsion, MIT and/or BIT replaced, 32° C.): comparable and better than the normal biocide package
- biocidal effect ([2]; algae removing compound, benzalkonium chloride replaced with 1-5%, 32° C.): comparable or even surpassing benzalkonium chloride in function
- biocidal effect ([2]; circulating heat-transfer systems, benzalkonium chloride replaced with 1-5%, 32° C.): comparable to benzalkonium chloride
- biocidal effect ([2]; combination dispersions, emulsions, suspensions, 32° C.): comparable and better than the normal biocide package
- biocidal effect ([2]; disinfection compound for pipes, benzalkonium chloride replaced with 1-5%, 32° C.): comparable to benzalkonium chloride
- preservation effect ([2]; food, preservatives substituted with comparable amounts of NBDA): suitable preservation effect(s) as the beforementioned preservative(s)
- biocidal effect ([2]; hand cleanser, sodiumbenzoate, MIT and BIT replaced, 32° C.): comparable or even better than the normal biocide package
- biocidal effect ([2]; liquid dishwashing compound, MIT/BIT replaced with 0.01-1%, 32° C.): comparable to or even surpassing the conventional biocide
- biocidal effect ([2]; liquid disinfection compound, benzalkonium chloride replaced with 1-5%, 32° C.): comparable or even surpassing benzalkonium chloride in function
- biocidal effect ([2]; moisturizing crème, benzoate and commercial biocides replaced, 32° C.): comparable or even better than the normal biocide package
- biocidal effect ([2]; soap, sodiumbenzoate, MIT and BIT replaced, 32° C.): comparable or even better than the normal biocide package
- biocidal effect ([2]; stabilized suspension, MIT and BIT replaced, 32° C.): comparable and better than the normal biocide package
- biocidal effect ([2]; swimming pool water, chlorine compounds replaced, 32° C.): comparable or even better than chlorine based traditional solutions
- biocidal effect ([2]; toothpaste, benzoate (e.g. 0.5%) replaced with similar concentration): comparable or even better than benzoate
- biocidal effect ([2]; veterinary disinfection compound, benzalkonium chloride and/or glutaraldehyde replaced with 1-5%, 32° C.): comparable or even surpassing both benzalkonium chloride and glutaraldehyde in function
- biocidal effect ([2]; waterborne cooling compound, benzalkonium chloride replaced with 1-5%, 32° C.): comparable or surpassing benzalkonium chloride
- biocidal effect ([2]; watersystems for toilets, washing facilities, benzalkonium chloride replaced with 1-5%, 32° C.): comparable to benzalkonium chloride
- pH [3]: around 11.1
- human consummation equivalent to LD50 (rat): 319 gram pr 75 kg
- Mean log reduction after 60 seconds (Vaccinia; 1.0% NBDA): 0.17
- Mean log reduction after 60 seconds (Vaccinia; 5.0% NBDA): 0.09
- log changes of CFU [4]: lower than 5 log units
